In patent US12187773B2, “Modified GIP peptide analogues” (Antag Therapeutics ApS, priority 2018, dated 2025):
*1 amine or outer side, *2 acyl side, *3 side chain or, on linkers, in order; H or OH if unused. Where a SMILES comes first, the peptide text is derived from it. Side-chain parts run from the residue outwards. [ ]: non-standard residue; d: D form. The star is where a group is joined. C18 diacid = O=C(O)CCCCCCCCCCCCCCCCC(=O)*; C16 diacid = O=C(O)CCCCCCCCCCCCCCC(=O)*; γGlu = O=C(O)[C@H](CCC(=O)[*:2])N[*:1]; pGlu = O=C1CC[C@@H](C(=O)O)N1; AEEA = NCCOCCOCC(=O)O

Experiments:
Format in all cases: cell-based
human GIP receptor [1] = biological target: T1, human GIP receptor (Homo sapiens, UniProt P48546); test: cAMP agonism (CisBio cAMP Dynamic 2 HTRF assay); conditions: HEK293, read-out: cAMP agonism, % Efficacy, Table 1C, HEK-293 cells
T1 sequence (P48546 22-466): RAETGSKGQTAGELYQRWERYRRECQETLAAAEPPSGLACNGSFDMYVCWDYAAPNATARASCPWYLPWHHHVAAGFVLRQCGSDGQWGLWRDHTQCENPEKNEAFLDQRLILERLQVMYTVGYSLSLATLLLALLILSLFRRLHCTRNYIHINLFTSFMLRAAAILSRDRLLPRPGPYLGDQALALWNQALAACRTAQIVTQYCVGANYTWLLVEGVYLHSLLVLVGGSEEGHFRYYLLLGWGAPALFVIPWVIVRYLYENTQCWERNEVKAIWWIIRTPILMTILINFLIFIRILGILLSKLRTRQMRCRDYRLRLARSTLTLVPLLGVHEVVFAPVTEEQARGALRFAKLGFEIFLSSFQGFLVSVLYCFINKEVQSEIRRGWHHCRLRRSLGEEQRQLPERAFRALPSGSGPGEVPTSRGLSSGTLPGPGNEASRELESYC
Protocol: To test for agonistic properties at the GIP receptor, compounds were diluted and added to cells as described above and incubated for 30 min at 37° C. The resulting increase in intracellular cAMP was determined using the CisBio cAMP Dynamic 2 HTRF Assay Kit as described above.

human GIP receptor [2] = biological target: T1, human GIP receptor; test: cAMP accumulation, agonism (DiscoveRx HitHunter cAMP XS assay); parameters: host or cells: COS-7 (transient, calcium phosphate; pCMV-Script vector); conditions: Table 1B; DiscoveRx; COS-7 cells
Procedure, shortened: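 cAMP accumulation measured by HitHunter cAMP XS in COS-7 cells transiently expressing human GIP receptor, after 30 min in HBS with 1 mM IBMX at 37 °C. Antagonists preincubated 10 min before GIP giving 50-80% of maximum, then 20 min more; agonist mode used 30 min ligand exposure.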

human GIP receptor [3] = biological target: T1, human GIP receptor; test: cAMP antagonism (CisBio cAMP Dynamic 2 HTRF assay); parameters: pCMV-Script vector
Procedure, shortened: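 Four-parameter fits of cAMP dose-response gave pIC50. cAMP fall was quantified by HTRF competition, ratio 665/620 nm after 60 min at room temperature, against a cAMP standard curve.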

glucagon receptor (GcgR) = biological target: T2, glucagon receptor (GcgR) (Homo sapiens, UniProt P47871); test: cAMP assay - selectivity, antagonism at glucagon receptor; conditions: Table 3A; COS-7 cells; agonist glucagon at 50-80% of maximal cAMP
T2 construct: expressed in transfected cells; host or cells: COS-7 (transient)
Protocol: Transient transfected COS-7 cells expressing the either of the GLP1 receptor (GLP1R), GLP2 receptor (GLP2R), glucagon receptor (GcgR) or secretin receptor (SCTR) were seeded in white 96-well plates with a density of 3.5*10^4/well. The day after, the cells were washed twice with Hepes buffered saline (HBS) buffer and incubated with HBS and 1 mM 3-isobutyl-1-methylxanthine (IBMX) for 30 min at 37° C. To test for agonistic properties, ligands were added and incubated for 30 min at 37° C. In order to test for antagonistic properties, the cells were preincubated with the antagonists for 10 min prior to the addition the natural agonist for the expressed receptor (GLP1 for GLP1R expressing cells, GLP2 for GLP2R expressing cells, glucagon for the GcgR and secretin for the SCTR) and subsequent incubated for 20 additional min. […] The HitHunter™ cAMP XS assay (DiscoveRx) was carried out according to the manufacturer's instructions.

[4] = GIPR, Antagonism, nM, Table 3C, CisBio assay
[5] = Table 1C, CisBio, HEK-293 cells
[6] = cAMP antagonism, nM (IC50), Table 1C, CisBio, HEK-293 cells, agonist GIP1-42 at EC50

T2 sequence (P47871 26-477, species assumed): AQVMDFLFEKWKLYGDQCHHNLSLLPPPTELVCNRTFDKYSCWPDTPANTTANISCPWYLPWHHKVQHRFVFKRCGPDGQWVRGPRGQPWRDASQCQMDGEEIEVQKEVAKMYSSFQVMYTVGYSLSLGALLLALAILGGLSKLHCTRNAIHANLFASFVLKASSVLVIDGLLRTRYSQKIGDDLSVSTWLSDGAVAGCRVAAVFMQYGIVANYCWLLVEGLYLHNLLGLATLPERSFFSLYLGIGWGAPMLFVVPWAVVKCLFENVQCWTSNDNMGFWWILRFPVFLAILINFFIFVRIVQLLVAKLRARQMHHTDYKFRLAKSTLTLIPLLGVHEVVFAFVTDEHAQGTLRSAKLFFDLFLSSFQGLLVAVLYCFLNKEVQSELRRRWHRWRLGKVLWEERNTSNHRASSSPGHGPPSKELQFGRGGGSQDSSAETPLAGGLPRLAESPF

SMILES	Emax (human GIP receptor [1]) [%]	cAMP agonism, Emax (human GIP receptor [2])	IC50 (human GIP receptor [3]; [4]) [nM]	cAMP antagonism, % inhib (human GIP receptor [3]; [5]) [%]	GIPR, Antagonism, % inhib (human GIP receptor [3]; Table 3C, CisBio assay) [%]	IC50 (human GIP receptor [3]; [6]) [nM]	Glucagon R, Antagonism, nM (glucagon receptor (GcgR))
CC[C@H](C)[C@H](NC(=O)[C@H](CO)NC(=O)[C@H](Cc1ccc(O)cc1)NC(=O)[C@H](CC(=O)O)NC(=O)[C@H](CO)NC(=O)[C@@H](NC(=O)[C@H](Cc1ccccc1)NC(=O)[C@@H](NC(=O)CNC(=O)[C@@H](N)CO)[C@@H](C)O)[C@@H](C)CC)C(=O)N[C@@H](C)C(=O)N[C@@H](CCSC)C(=O)N[C@@H](CC(=O)O)C(=O)N[C@@H](CCCNC(=N)N)C(=O)N[C@H](C(=O)N[C@@H](CCCCNC(=O)COCCOCCNC(=O)COCCOCCNC(=O)COCCOCCNC(=O)CC[C@H](NC(=O)CCCCCCCCCCCCCCCCC(=O)O)C(=O)O)C(=O)N[C@@H](CCC(N)=O)C(=O)N[C@@H](CCC(N)=O)C(=O)N[C@@H](CC(=O)O)C(=O)N[C@@H](Cc1ccccc1)C(=O)N[C@H](C(=O)N[C@@H](CC(N)=O)C(=O)N[C@@H](Cc1c[nH]c2ccccc12)C(=O)N[C@@H](CC(C)C)C(=O)N[C@@H](CC(C)C)C(=O)N[C@@H](C)C(=O)N[C@@H](CCC(N)=O)C(=O)N[C@@H](CCCNC(=N)N)C(N)=O)C(C)C)[C@@H](C)CC [AT385] (H-SGTFISDYSIAMDRIK([AEEA-AEEA-AEEA-γGlu-C18 diacid])QQDFVNWLLAQR-NH2; N-terminus assumed)	3	No Agonism	43	70	70	43	No antagonism
CC[C@H](C)[C@H](NC(=O)[C@H](CO)NC(=O)[C@H](Cc1ccc(O)cc1)NC(=O)[C@H](CC(=O)O)NC(=O)[C@H](CO)NC(=O)[C@@H](NC(=O)[C@H](Cc1ccccc1)NC(=O)[C@@H](NC(=O)CNC(=O)[C@@H](N)CO)[C@@H](C)O)[C@@H](C)CC)C(=O)N[C@@H](C)C(=O)N[C@@H](CCSC)C(=O)N[C@@H](CC(=O)O)C(=O)N[C@@H](CCCNC(=N)N)C(=O)N[C@H](C(=O)N[C@@H](CCCCNC(=O)COCCOCCNC(=O)COCCOCCNC(=O)CC[C@H](NC(=O)CCCCCCCCCCCCCCCCC(=O)O)C(=O)O)C(=O)N[C@@H](CCC(N)=O)C(=O)N[C@@H](CCC(N)=O)C(=O)N[C@@H](CC(=O)O)C(=O)N[C@@H](Cc1ccccc1)C(=O)N[C@H](C(=O)N[C@@H](CC(N)=O)C(=O)N[C@@H](Cc1c[nH]c2ccccc12)C(=O)N[C@@H](CC(C)C)C(=O)N[C@@H](CC(C)C)C(=O)N[C@@H](C)C(=O)N[C@@H](CCC(N)=O)C(=O)N[C@@H](CCCNC(=N)N)C(N)=O)C(C)C)[C@@H](C)CC [AT384] (H-SGTFISDYSIAMDRIK([AEEA-AEEA-γGlu-C18 diacid])QQDFVNWLLAQR-NH2; N-terminus assumed)	0	No Agonism	54.1	97	97	54.1	No antagonism
CC[C@H](C)[C@H](NC(=O)[C@H](CO)NC(=O)[C@H](Cc1ccc(O)cc1)NC(=O)[C@H](CC(=O)O)NC(=O)[C@H](CO)NC(=O)[C@@H](NC(=O)[C@H](Cc1ccccc1)NC(=O)[C@@H](NC(=O)CNC(=O)[C@@H](N)CO)[C@@H](C)O)[C@@H](C)CC)C(=O)N[C@@H](C)C(=O)N[C@@H](CCSC)C(=O)N[C@@H](CC(=O)O)C(=O)N[C@@H](CCCNC(=N)N)C(=O)N[C@H](C(=O)N[C@@H](CCCCNC(=O)COCCOCCNC(=O)COCCOCCNC(=O)COCCOCCNC(=O)CC[C@H](NC(=O)CCCCCCCCCCCCCCC(=O)O)C(=O)O)C(=O)N[C@@H](CCC(N)=O)C(=O)N[C@@H](CCC(N)=O)C(=O)N[C@@H](CC(=O)O)C(=O)N[C@@H](Cc1ccccc1)C(=O)N[C@H](C(=O)N[C@@H](CC(N)=O)C(=O)N[C@@H](Cc1c[nH]c2ccccc12)C(=O)N[C@@H](CC(C)C)C(=O)N[C@@H](CC(C)C)C(=O)N[C@@H](C)C(=O)N[C@@H](CCC(N)=O)C(=O)N[C@@H](CCCNC(=N)N)C(N)=O)C(C)C)[C@@H](C)CC [AT383] (H-SGTFISDYSIAMDRIK([AEEA-AEEA-AEEA-γGlu-C16 diacid])QQDFVNWLLAQR-NH2; N-terminus assumed)	0	No Agonism	12.6	89	89	12.6	No antagonism
CC[C@H](C)[C@H](NC(=O)[C@H](CO)NC(=O)[C@H](Cc1ccc(O)cc1)NC(=O)[C@H](CC(=O)O)NC(=O)[C@H](CO)NC(=O)[C@@H](NC(=O)[C@H](Cc1ccccc1)NC(=O)[C@@H](NC(=O)CNC(=O)[C@@H](N)CO)[C@@H](C)O)[C@@H](C)CC)C(=O)N[C@@H](C)C(=O)N[C@@H](CCSC)C(=O)N[C@@H](CC(=O)O)C(=O)N[C@@H](CCCNC(=N)N)C(=O)N[C@H](C(=O)N[C@@H](CCCCNC(=O)CCCCCCCCCCCCCCCCC(=O)O)C(=O)N[C@@H](CCC(N)=O)C(=O)N[C@@H](CCC(N)=O)C(=O)N[C@@H](CC(=O)O)C(=O)N[C@@H](Cc1ccccc1)C(=O)N[C@H](C(=O)N[C@@H](CC(N)=O)C(=O)N[C@@H](Cc1c[nH]c2ccccc12)C(=O)N[C@@H](CC(C)C)C(=O)N[C@@H](CC(C)C)C(=O)N[C@@H](C)C(=O)N[C@@H](CCC(N)=O)C(=O)N[C@@H](CCCNC(=N)N)C(N)=O)C(C)C)[C@@H](C)CC [AT393] (H-SGTFISDYSIAMDRIK(C18 diacid)QQDFVNWLLAQR-NH2; N-terminus assumed)	6	No Agonism	33.5	78	78	33.5	No antagonism
CC[C@H](C)[C@H](NC(=O)[C@H](CO)NC(=O)[C@H](Cc1ccc(O)cc1)NC(=O)[C@H](CC(=O)O)NC(=O)[C@H](CO)NC(=O)[C@@H](NC(=O)[C@H](Cc1ccccc1)NC(=O)[C@@H](NC(=O)CNC(=O)[C@@H]1CCC(=O)N1)[C@@H](C)O)[C@@H](C)CC)C(=O)N[C@@H](C)C(=O)N[C@@H](CCSC)C(=O)N[C@@H](CC(=O)O)C(=O)N[C@@H](CCCNC(=N)N)C(=O)N[C@H](C(=O)N[C@@H](CCCCNC(=O)COCCOCCNC(=O)COCCOCCNC(=O)COCCOCCNC(=O)CC[C@H](NC(=O)CCCCCCCCCCCCCCCCC(=O)O)C(=O)O)C(=O)N[C@@H](CCC(N)=O)C(=O)N[C@@H](CCC(N)=O)C(=O)N[C@@H](CC(=O)O)C(=O)N[C@@H](Cc1ccccc1)C(=O)N[C@H](C(=O)N[C@@H](CC(N)=O)C(=O)N[C@@H](Cc1c[nH]c2ccccc12)C(=O)N[C@@H](CC(C)C)C(=O)N[C@@H](CC(C)C)C(=O)N[C@@H](C)C(=O)N[C@@H](CCC(N)=O)C(=O)N[C@@H](CCCNC(=N)N)C(N)=O)C(C)C)[C@@H](C)CC [AT382] ([pGlu]GTFISDYSIAMDRIK([AEEA-AEEA-AEEA-γGlu-C18 diacid])QQDFVNWLLAQR-NH2)	0	No Agonism	25.1	83	83	25.1	No antagonism
